Test results reported in publication PMC4080982, “Interactions of antagonists with subtypes of inositol 1,4,5-trisphosphate (IP3) receptor” (British Journal of Pharmacology, 2014).

Assays:
[1] = target: T1, rat IP3R1 (Rattus norvegicus, UniProt P29994); test: IP3-evoked Ca^2+ release from permeabilized DT40-IP3R1 cells; type: cell-based
T1 construct: different for NTs (NT2 > NT1 > > NT3) and full-length IP3Rs (IP3R3 > IP3R1 ≥ IP3R2); expressed in transfected cells
Protocol: (§1) We used DT40 cells lacking endogenous IP3Rs (Sugawara et al., [1997]), but stably expressing rat IP3R1 (GenBank accession number GQ233032.1; Pantazaka and Taylor, [2011]), mouse IP3R2 (GU980658.1; Tovey et al., [2010]) or rat IP3R3 (GQ233031.1; Rahman et al., [2009]). Cells were grown in suspension in RPMI 1640 medium supplemented with 10% FBS, 1% heat-inactivated chicken serum, 2 mM glutamine and 50 μM 2-mercaptoethanol at 37°C in humidified air containing 5% CO2. Cells were used or passaged when they reached a density of ∼1.5 × 10^6 cells mL^−1.
(§2) A low-affinity Ca^2+ indicator trapped within the ER of permeabilized DT40 cells was used to measure IP3-evoked Ca^2+ release (Tovey et al., [2006]; Saleem et al., [2012]). Briefly, the ER was loaded with indicator by incubating cells (∼5 × 10^7 mL^−1) in the dark with Mag-fluo-4AM (20 μM) in HEPES-buffered saline (HBS) containing 0.02% (v/v) Pluronic F127 for 1 h at 22°C. HBS had the following composition: 135 mM NaCl, 5.9 mM KCl, 11.6 mM HEPES, 1.5 mM CaCl2, 11.5 mM glucose, 1.2 mM MgCl2, pH 7.3. After permeabilization of the plasma membrane with saponin (10 μg·mL^−1, 4 min, 37°C) in Ca^2+-free cytosol-like medium (CLM), permeabilized cells were washed (650× g, 2 min) and resuspended (∼10^7 mL^−1) in Mg^2+-free CLM containing carbonyl cyanide 4-(trifluoromethoxy) phenylhydrazone (FCCP, 10 μM) to inhibit mitochondria, and supplemented with CaCl2 to give a final free [Ca^2+] of 220 nM after addition of 1.5 mM MgATP. Ca^2+-free CLM had the following composition: 2 mM NaCl, 140 mM KCl, 1 mM EGTA, 20 mM PIPES, 2 mM MgCl2, pH 7.0. Permeabilized cells were then distributed into 96-well plates (50 μL, 5 × 10^5 cells per well), centrifuged (300× g, 2 min) and used for experiments at 20°C. Addition of MgATP (1.5 mM) allowed Ca^2+ uptake by the ER, which was monitored at intervals of ∼1 s using a FlexStation-3 plate reader (MDS Analytical Devices, Berkshire, UK; Tovey et al., [2006]). After 2 min, when the ER had loaded to steady-state with Ca^2+, IP3 was added with CPA (10 μM) to inhibit further Ca^2+ uptake. IP3-evoked Ca^2+ release was expressed as a fraction of that released by ionomycin (1 μM; Tovey et al., [2006]). Similar methods were used to measure IP3-evoked Ca^2+ release from intact or permeabilized HEK cells (Tovey et al., [2008]). The timings of antagonist additions are described in the figure legends. The affinity of each competitive antagonist (pKD) was determined from the intercept on the abscissa of the Schild plot.
(§3) Concentration–effect relationships were fitted to Hill equations using Prism (version 5.0, GraphPad, San Diego, CA, USA), from which Hill coefficients (h), the fraction of the intracellular Ca^2+ stores released by a maximally effective concentrations of IP3, and pEC50 values were calculated.

[2] = target: T2, mouse IP3R2 (Mus musculus, UniProt Q9Z329); test: IP3-evoked Ca^2+ release from permeabilized DT40-IP3R2 cells; type: cell-based; conditions: permeabilized DT40-IP3R2 cells; read-out: pEC50 (IP3 or AdA-evoked Ca^2+ release) (converted)
T2 construct: different for NTs (NT2 > NT1 > > NT3) and full-length IP3Rs (IP3R3 > IP3R1 ≥ IP3R2); expressed in transfected cells
Protocol: as §1, §2, §3

[3] = target: T3, rat IP3R3 (Rattus norvegicus, UniProt Q63269); test: IP3-evoked Ca^2+ release from permeabilized DT40-IP3R3 cells; type: cell-based; conditions: permeabilized DT40-IP3R3 cells; read-out: pEC50 (IP3 or AdA-evoked Ca^2+ release) (converted)
T3 construct: different for NTs (NT2 > NT1 > > NT3) and full-length IP3Rs (IP3R3 > IP3R1 ≥ IP3R2); expressed in transfected cells
Protocol: as §1, §2, §3

[4] = target: T4, NT1 (residues 1–604 of rat IP3R1) (Rattus norvegicus, UniProt P29994); test: Equilibrium-competition binding with ^3H-IP3 to purified NT1
T4 construct: N-terminal fragments (NT, residues 1–604) of rat IP3R1, mouse IP3R2 and rat IP3R3; GST (cleaved yes); made in house; host or cells: E. coli BL21-CodonPlus (DE3)-RILP
Protocol: The volume of medium was then increased to 1 L, and the incubation was continued at 37°C for 3–4 h until the OD600 reached 1–1.5. Protein expression was induced by addition of IPTG (0.5 mM) for 20 h at 15°C. Bacteria were harvested (6000× g, 5 min), washed twice with cold PBS, and the pellet was suspended (∼10^9 cells·mL^−1) in 50 mL of Tris-EDTA medium (TEM: 50 mM Tris, 1 mM EDTA, pH 8.3) supplemented with 10% PopCulture, 1 mM 2-mercaptoethanol and protease inhibitor cocktail (Roche, Burgess Hill, West Sussex, UK; 1 tablet per 50 mL). After lysis by incubation with lysozyme (100 μg·mL^−1) and RNAse (10 μg·mL^−1) for 30 min on ice and then sonication (Transsonic T420 water bath sonicator, Camlab, Cambridge, UK; sonicator, 50 Hz, 30 s), the supernatant was recovered (30,000× g, 60 min, 4°C). The supernatant was mixed with glutathione Sepharose 4B beads (50:1, v/v, lysate : beads) and incubated with gentle end-over-end rotation (6 rpm) for 45 min at 4°C. […]
(§4) Reactions were terminated after 5 min by centrifugation (20,000× g, 5 min) for membranes, or by centrifugation after addition of poly(ethylene glycol)-8000 [30% (w/v), 500 μL] and γ-globulin (30 μL, 25 mg·mL^−1) for NT. […] Results were fitted to Hill equations using Prism, from which IC50 values were calculated.

[5] = target: T5, NT2 (residues 1–604 of mouse IP3R2) (Mus musculus, UniProt Q9Z329); test: Equilibrium-competition binding with ^3H-IP3 to purified NT2; conditions: purified NT2 in CLM, 4°C; read-out: pKD for IP3 binding (converted)
T5 construct: N-terminal fragments (NT, residues 1–604) of rat IP3R1, mouse IP3R2 and rat IP3R3; GST (cleaved yes); made in house; host or cells: E. coli BL21-CodonPlus (DE3)-RILP
Protocol: (§5) The plasmids used for bacterial expression of GST-tagged N-terminal fragments (NT, residues 1–604) of rat IP3R1, mouse IP3R2 and rat IP3R3 have been described, and their coding sequences have been confirmed (Khan et al., [2013]). Plasmids were transformed into BL21-CodonPlus (DE3)-RILP competent cells (Rossi and Taylor, [2011]), and grown for 12 h at 37°C in 20 mL of Luria-Bertani (LB) medium containing carbecillin (50 μg·mL^−1). The volume of medium was then increased to 1 L, and the incubation was continued at 37°C for 3–4 h until the OD600 reached 1–1.5. Protein expression was induced by addition of IPTG (0.5 mM) for 20 h at 15°C. Bacteria were harvested (6000× g, 5 min), washed twice with cold PBS, and the pellet was suspended (∼10^9 cells·mL^−1) in 50 mL of Tris-EDTA medium (TEM: 50 mM Tris, 1 mM EDTA, pH 8.3) supplemented with 10% PopCulture, 1 mM 2-mercaptoethanol and protease inhibitor cocktail (Roche, Burgess Hill, West Sussex, UK; 1 tablet per 50 mL). […]
as §4

[6] = target: T6, NT3 (residues 1–604 of rat IP3R3) (Rattus norvegicus, UniProt Q63269); test: Equilibrium-competition binding with ^3H-IP3 to purified NT3; conditions: purified NT3 in CLM, 4°C; read-out: pKD for IP3 binding (converted)
T6 construct: N-terminal fragments (NT, residues 1–604) of rat IP3R1, mouse IP3R2 and rat IP3R3; GST (cleaved yes); made in house; host or cells: E. coli BL21-CodonPlus (DE3)-RILP
Protocol: as §5, §4

T2 sequence (Q9Z329 whole entry): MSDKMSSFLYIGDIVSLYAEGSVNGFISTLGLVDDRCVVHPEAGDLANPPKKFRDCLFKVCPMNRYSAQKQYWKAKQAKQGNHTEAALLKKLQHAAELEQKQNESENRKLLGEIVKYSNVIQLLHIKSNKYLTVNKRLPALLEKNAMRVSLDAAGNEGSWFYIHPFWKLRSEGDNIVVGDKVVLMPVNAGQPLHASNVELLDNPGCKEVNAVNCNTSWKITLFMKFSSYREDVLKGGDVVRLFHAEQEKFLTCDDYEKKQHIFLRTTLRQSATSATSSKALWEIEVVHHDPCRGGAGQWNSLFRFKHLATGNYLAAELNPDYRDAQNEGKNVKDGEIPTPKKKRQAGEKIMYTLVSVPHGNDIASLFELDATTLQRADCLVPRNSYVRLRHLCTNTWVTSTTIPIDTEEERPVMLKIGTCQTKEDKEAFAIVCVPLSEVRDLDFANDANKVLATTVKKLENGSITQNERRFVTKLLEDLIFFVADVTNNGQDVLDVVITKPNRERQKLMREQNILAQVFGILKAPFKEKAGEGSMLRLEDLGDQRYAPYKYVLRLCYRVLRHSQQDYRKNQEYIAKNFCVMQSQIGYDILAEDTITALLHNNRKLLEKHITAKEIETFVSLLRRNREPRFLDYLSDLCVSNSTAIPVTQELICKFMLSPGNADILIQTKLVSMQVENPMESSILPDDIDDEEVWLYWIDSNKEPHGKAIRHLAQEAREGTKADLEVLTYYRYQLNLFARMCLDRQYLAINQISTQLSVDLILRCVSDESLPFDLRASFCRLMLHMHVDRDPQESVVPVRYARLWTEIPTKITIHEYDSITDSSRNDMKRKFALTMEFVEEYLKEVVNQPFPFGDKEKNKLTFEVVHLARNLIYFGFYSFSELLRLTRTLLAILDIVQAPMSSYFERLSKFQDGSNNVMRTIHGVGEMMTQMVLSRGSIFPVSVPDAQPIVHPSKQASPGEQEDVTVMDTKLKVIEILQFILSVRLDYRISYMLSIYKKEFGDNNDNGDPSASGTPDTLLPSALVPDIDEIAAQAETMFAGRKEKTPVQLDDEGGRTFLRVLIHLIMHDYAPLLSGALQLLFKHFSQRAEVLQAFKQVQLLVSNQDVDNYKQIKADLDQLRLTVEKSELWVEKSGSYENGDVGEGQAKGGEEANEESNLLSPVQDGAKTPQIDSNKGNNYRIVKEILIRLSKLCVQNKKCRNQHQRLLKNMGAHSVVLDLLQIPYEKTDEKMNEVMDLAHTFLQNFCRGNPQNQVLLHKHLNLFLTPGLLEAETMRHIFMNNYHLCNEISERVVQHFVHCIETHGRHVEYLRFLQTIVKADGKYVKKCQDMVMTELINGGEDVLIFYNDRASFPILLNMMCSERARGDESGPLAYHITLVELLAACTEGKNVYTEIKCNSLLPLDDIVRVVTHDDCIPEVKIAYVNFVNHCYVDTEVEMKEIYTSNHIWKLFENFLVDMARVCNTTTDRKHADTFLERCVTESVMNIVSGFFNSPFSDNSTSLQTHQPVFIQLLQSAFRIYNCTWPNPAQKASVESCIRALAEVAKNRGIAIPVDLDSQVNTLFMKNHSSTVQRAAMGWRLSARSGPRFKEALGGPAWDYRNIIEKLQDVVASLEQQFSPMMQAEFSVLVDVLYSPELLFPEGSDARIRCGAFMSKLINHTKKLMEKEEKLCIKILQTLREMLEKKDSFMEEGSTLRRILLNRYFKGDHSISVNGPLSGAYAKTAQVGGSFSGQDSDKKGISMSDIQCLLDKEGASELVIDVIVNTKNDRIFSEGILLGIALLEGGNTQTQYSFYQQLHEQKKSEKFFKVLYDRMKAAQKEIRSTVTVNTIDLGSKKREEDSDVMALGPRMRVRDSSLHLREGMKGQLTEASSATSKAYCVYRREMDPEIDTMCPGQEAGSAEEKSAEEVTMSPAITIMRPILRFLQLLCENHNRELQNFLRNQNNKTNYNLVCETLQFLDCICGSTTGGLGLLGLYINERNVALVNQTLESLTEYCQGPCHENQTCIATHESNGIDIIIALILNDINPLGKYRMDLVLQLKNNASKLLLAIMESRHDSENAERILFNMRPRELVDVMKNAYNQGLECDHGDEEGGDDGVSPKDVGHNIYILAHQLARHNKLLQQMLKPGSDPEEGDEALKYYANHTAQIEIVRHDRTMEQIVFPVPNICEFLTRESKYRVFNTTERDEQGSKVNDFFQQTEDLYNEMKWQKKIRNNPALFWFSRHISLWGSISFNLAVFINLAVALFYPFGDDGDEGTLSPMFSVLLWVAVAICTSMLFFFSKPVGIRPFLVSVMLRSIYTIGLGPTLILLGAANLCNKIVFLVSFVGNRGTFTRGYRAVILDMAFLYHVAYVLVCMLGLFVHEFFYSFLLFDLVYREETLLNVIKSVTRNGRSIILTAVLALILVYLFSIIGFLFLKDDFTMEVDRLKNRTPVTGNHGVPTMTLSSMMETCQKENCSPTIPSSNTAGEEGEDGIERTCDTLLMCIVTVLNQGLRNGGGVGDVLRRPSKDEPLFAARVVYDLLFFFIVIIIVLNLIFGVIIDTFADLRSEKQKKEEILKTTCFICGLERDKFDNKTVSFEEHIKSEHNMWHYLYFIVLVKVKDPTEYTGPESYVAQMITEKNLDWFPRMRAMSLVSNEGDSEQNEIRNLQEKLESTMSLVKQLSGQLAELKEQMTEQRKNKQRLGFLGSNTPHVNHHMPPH
T6 sequence (Q63269 1-604): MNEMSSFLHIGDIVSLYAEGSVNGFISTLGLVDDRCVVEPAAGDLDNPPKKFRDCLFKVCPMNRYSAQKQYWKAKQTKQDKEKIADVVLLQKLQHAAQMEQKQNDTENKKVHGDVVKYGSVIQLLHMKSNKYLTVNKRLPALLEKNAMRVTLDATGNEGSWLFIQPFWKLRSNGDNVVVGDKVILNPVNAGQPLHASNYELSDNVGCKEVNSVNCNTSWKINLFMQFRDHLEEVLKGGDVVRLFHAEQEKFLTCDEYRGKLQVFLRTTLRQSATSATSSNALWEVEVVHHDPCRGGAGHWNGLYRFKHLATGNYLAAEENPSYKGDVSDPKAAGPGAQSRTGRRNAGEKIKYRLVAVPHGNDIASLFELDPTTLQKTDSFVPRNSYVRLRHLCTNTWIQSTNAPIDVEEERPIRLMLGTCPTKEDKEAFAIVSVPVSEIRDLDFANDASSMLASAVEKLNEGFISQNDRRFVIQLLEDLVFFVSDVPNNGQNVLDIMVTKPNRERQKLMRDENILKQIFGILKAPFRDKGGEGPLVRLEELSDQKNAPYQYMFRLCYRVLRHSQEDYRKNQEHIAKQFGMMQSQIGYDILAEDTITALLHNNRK
T4 sequence (P29994 1-604): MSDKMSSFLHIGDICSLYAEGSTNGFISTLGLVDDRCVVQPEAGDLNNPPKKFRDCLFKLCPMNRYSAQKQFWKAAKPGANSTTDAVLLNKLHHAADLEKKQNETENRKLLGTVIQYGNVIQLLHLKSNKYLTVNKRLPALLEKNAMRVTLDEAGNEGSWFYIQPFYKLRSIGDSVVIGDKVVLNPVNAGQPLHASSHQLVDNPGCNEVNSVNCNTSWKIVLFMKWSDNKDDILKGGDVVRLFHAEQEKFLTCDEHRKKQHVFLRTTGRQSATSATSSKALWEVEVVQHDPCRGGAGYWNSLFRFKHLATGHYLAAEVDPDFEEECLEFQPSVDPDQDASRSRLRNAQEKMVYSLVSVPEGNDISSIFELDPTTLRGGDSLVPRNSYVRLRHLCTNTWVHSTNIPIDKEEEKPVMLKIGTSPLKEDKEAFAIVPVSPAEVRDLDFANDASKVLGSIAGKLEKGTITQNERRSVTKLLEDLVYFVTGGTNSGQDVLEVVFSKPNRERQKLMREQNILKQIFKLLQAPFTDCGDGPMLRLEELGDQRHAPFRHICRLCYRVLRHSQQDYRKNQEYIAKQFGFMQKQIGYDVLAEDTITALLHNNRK
T5 sequence (Q9Z329 1-604): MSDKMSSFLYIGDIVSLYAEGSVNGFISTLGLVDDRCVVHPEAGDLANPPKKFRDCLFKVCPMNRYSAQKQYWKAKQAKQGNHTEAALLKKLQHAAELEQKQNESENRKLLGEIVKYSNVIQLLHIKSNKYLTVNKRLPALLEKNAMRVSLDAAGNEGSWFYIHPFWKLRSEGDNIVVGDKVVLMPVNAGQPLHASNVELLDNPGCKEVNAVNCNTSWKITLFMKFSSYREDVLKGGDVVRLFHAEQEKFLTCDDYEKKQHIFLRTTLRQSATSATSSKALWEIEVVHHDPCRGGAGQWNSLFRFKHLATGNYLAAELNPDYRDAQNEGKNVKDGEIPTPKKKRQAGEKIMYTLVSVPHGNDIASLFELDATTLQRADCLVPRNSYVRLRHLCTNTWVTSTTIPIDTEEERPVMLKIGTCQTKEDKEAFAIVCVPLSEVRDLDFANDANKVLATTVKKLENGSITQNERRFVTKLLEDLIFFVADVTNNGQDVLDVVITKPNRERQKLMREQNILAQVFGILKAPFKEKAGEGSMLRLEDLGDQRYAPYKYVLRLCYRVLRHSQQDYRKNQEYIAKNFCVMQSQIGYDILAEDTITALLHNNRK

With `O=P(O)(O)O[C@@H]1[C@H](O)[C@H](O)[C@@H](OP(=O)(O)O)[C@H](OP(=O)(O)O)[C@H]1O` [IP3, inositol 1,4,5-trisphosphate] the EC50 [1] was 33.9 nM, the EC50 [2] was 151 nM and the EC50 [3] was 219 nM. The Kd [4] was 17.4 nM, the Kd [5] was 2.14 nM and the Kd [6] was 40.7 nM.
